{
  "source": "patent US20080207622A1",
  "about": "“SOLUBLE EPOXIDE HYDROLASE INHIBITORS” (Arete Therapeutics, Inc., priority 2006, published 2008)",
  "key": {"[1]": {"tested_on": "soluble epoxide hydrolase (sEH)", "assay": "Fluorescent assay for mouse and human soluble epoxide hydrolase (CMNPC substrate)", "format": "biochemical", "text": "Fluorescent Assay for Mouse and Human Soluble Epoxide Hydrolase\nRecombinant mouse sEH (MsEH) and human sEH (HsEH) were produced in a baculovirus expression system as previously reported. Grant et al., J. Biol. Chem., 268:17628-17633 (1993); Beetham et al., Arch. Biochem. Biophys., 305:197-201 (1993). The expressed proteins were purified from cell lysate by affinity chromatography. Wixtrom et al., Anal. Biochem., 169:71-80 (1988). Protein concentration was quantified using the Pierce BCA assay using bovine serum albumin as the calibrating standard. The preparations were at least 97% pure as judged by SDS-PAGE and scanning densitometry. They contained no detectable esterase or glutathione transferase activity which can interfere with the assay. The assay was also evaluated with similar results in crude cell lysates or homogenate of tissues.\nThe IC50s for each inhibitor were determined according to the following procedure:\nCyano(2-methoxynaphthalen-6-yl)methyl (3-phenyloxiran-2-yl)methyl carbonate (CMNPC; Jones P. D. et. al.; Analytical Biochemistry 2005; 343: pp. 66-75)\nBis/Tris HCl 25 mM pH 7.0 containing 0.1 mg/mL of BSA (buffer A) CMNPC at 0.25 mM in DMSO.\nMother solution of enzyme in buffer A (Mouse sEH at 6 μg/mL and Human sEH at 5 μg/mL).\nInhibitor dissolved in DMSO at the appropriate concentration.\nIn a black 96 well plate, fill all the wells with 150 μL of buffer A.\nAdd 2 μL of DMSO in well A2 and A3, and then add 2 μL of inhibitor solution in A1 and A4 through A12.\nAdd 150 μL of buffer A in row A, then mix several time and transfer 150 μL to row B. Repeat this operation up to row H. The 150 μL removed from row H is discarded.\nAdd 20 μL of buffer A in column 1 and 2, then add 20 μL of enzyme solution to column 3 to 12.\nIncubate the plate for 5 minutes in the plate reader at 30° C.\nDuring incubation prepare the working solution of substrate by mixing 3.68 mL of buffer A (4×0.920 mL) with 266 μL (2×133 μL) of substrate solution).\nAt t=0, add 30 μL of working substrate solution with multi-channel pipette labeled “Briggs 303” and start the reading ([S]final: 5 μM).\nRead with ex: 330 nm (20 nm) and em: 465 nm (20 nm) every 30 second for 10 minutes. The velocities are used to analyze and calculate the IC50s."}},
  "data": [
    {"compound": "CS(=O)(=O)c1ccc(NC(=O)Nc2ccc(C(F)(F)F)cc2)cc1", "note": "[Compound 2, 1-(4-Methanesulfonyl-phenyl)-3-(4-trifluoromethyl-phenyl)-urea]", "values": [
      {"measurement": "% Inhibition", "setting": "[1]; Conc. 50 nM", "value": 79, "unit": "%"}
    ]},
    {"compound": "CS(=O)(=O)c1cccc(NC(=O)Nc2ccc(C(F)(F)F)cc2)c1", "note": "[Compound 3, 1-(3-Methanesulfonyl-phenyl)-3-(4-trifluoromethyl-phenyl)-urea]", "values": [
      {"measurement": "% Inhibition", "setting": "[1]; Conc. 50 nM", "value": 88, "unit": "%"}
    ]},
    {"compound": "COc1ccc(S(=O)(=O)c2ccc(NC(=O)NC34CC5CC(CC(C5)C3)C4)cc2)nn1", "note": "[Compound 10, 1-Adamantan-1-yl-3-[4-(6-methoxy-pyridazine-3-sulfonyl)-phenyl]-urea]", "values": [
      {"measurement": "melting point", "value": "252 to 254", "unit": "°C"},
      {"measurement": "% Inhibition", "setting": "[1]; Conc. 2000 nM", "value": 100, "unit": "%"}
    ]},
    {"compound": "O=C(Nc1ccccc1)Nc1cccc(S(=O)(=O)CCCN2CCOCC2)c1", "note": "[Compound 4, 1-[3-(3-Morpholin-4-yl-propane-1-sulfonyl)-phenyl]-3-phenyl-urea]", "values": [
      {"measurement": "% Inhibition", "setting": "[1]; Conc. 500 nM", "value": 74, "unit": "%"}
    ]},
    {"compound": "O=C(Nc1ccc(C(F)(F)F)cc1)Nc1ccc(S(=O)(=O)c2ccccc2)cc1", "note": "[Compound 1, 1-(4-Benzenesulfonyl-phenyl)-3-(4-trifluoromethyl-phenyl)-urea]", "values": [
      {"measurement": "% Inhibition", "setting": "[1]; Conc. 50 nM", "value": 92, "unit": "%"}
    ]}
  ]
}
